Test results: the RepoRT retention time repository (doi:10.1007/s00216-021-03828-0)
Structures can show the parent of a compound that is named as a salt.

Columns and labels:
Settings in all cases: stereoisomer not certain
[1] = RP, Merck Supelco Ascentis Express C18, 100 × 2.1 mm, 2 µm, 40 °C, 0.4 mL/min, estimated dead time 0.55 min; A: water + 0.1% formic acid, pH 3; B: acetonitrile + 0.1% formic acid, pH 3; gradient (min/%B) 0/5 2/5 17/99.9 20/99.9
[2] = RP, Merck Supelco Ascentis Express C18, 100 × 2.1 mm, 2 µm, 40 °C, 0.25 mL/min, estimated dead time 0.88 min; A: water + 0.1% formic acid, pH 3; B: acetonitrile + 0.1% formic acid, pH 3; gradient (min/%B) 0/5 2/5 17/99.9 20/99.9
[3] = RP, Merck Supelco Ascentis Express C18, 100 × 2.1 mm, 2 µm, 40 °C, 0.2 mL/min, estimated dead time 1.1 min; A: water + 0.1% formic acid, pH 3; B: acetonitrile + 0.1% formic acid, pH 3; gradient (min/%B) 0/5 2/5 17/99.9 20/99.9
[4] = RP, Merck Supelco Ascentis Express C18, 100 × 2.1 mm, 2 µm, 39 °C, 0.3 mL/min, estimated dead time 0.73 min; A: water + 0.1% formic acid, pH 3; B: acetonitrile + 0.1% formic acid, pH 3; gradient (min/%B) 0/5 2/5 17/99.9 20/99.9
[5] = RP, Merck Supelco Ascentis Express C18, 100 × 2.1 mm, 2 µm, 40 °C, 0.35 mL/min, estimated dead time 0.63 min; A: water + 0.1% formic acid, pH 3; B: acetonitrile + 0.1% formic acid, pH 3; gradient (min/%B) 0/5 2/5 17/99.9 20/99.9
[6] = RP, Merck Supelco Ascentis Express C18, 100 × 2.1 mm, 2 µm, 40 °C, 0.2 mL/min, estimated dead time 1.1 min; A: water + 0.1% formic acid, pH 3; B: acetonitrile + 0.1% formic acid, pH 3; gradient (min/%B) 0/5 2/5 17/99.9 20/99.9; remark: listed apart in the source
[7] = RP, Merck Supelco Ascentis Express C18, 100 × 2.1 mm, 2 µm, 40 °C, 0.4 mL/min, estimated dead time 0.55 min; A: water + 0.1% formic acid, pH 3; B: acetonitrile + 0.1% formic acid, pH 3; gradient (min/%B) 0/5 2/5 17/99.9 20/99.9; remark: listed apart in the source

Compound	LC retention time [1]	LC retention time [2]	LC retention time [3]	LC retention time [4]	LC retention time [5]	LC retention time [6]	LC retention time [7]
O=C(O)c1cc(O)ccc1O [2,5-DIHYDROXYBENZOATE]	2.63 min	4.02 min	4.65 min	3.5 min	3.04 min	4.65 min	2.66 min
Cn1cnc2c(ncn2C2OC(CO)C(O)C2O)c1=N (stereo not given) [1-METHYLADENOSINE]	0.993 min	1.58 min	2.01 min	1.31 min	1.16 min	2.01 min	1.01 min
CC(=O)C1CCC2C3CC=C4CC(OS(=O)(=O)O)CCC4(C)C3CCC12C (stereo not given) [PREGNENOLONE SULFATE]	8.55 min	9.46 min	10.1 min	9.19 min	8.79 min	9.94 min	8.55 min
COc1cc(C=CC(=O)O)ccc1O [FERULATE]	4.81 min	5.78 min	6.33 min	5.39 min	5.07 min	6.32 min	4.85 min
CC(O)(CC(=O)O)CC(=O)O [3-HYDROXYMETHYLGLUTARATE]	0.76 min	1.26 min	1.59 min	1.06 min	0.893 min	1.6 min	0.773 min
O=C(O)CNC(=O)c1ccccc1 [HIPPURATE]	3.42 min	4.54 min	5.12 min	4.09 min	3.72 min	5.11 min	3.45 min
CCCCCCCCCCCCCC(=O)O [MYRISTATE]	14.2 min	15.6 min	16.4 min	15 min	14.6 min	16.4 min	14.3 min
CC(=O)NCCc1c[nH]c2ccc(O)cc12 [N-ACETYLSEROTONIN]	3.5 min	4.45 min	4.96 min	4.07 min	3.77 min	4.97 min	3.52 min
O=C(O)c1cc(=O)c2cccc(O)c2[nH]1 [XANTHURENATE]	2.29 min	3.61 min	4.17 min	3.33 min	2.57 min	4.15 min	2.28 min
CC(=O)NCCCC(=O)O [4-ACETAMIDOBUTANOATE]	0.783 min	1.29 min	1.63 min	1.07 min	0.923 min	1.63 min	0.8 min
CSc1ncnc2nc[nH]c12 [THIOPURINE S-METHYLETHER]	3.33 min	4.33 min	4.85 min	3.94 min	3.61 min	4.85 min	3.37 min
O=C(O)C(=O)Cc1c[nH]c2ccccc12 [INDOLE-3-PYRUVATE]	5.58 min	6.47 min	7.11 min	6.08 min	5.84 min	7 min	5.52 min
CSCC1OC(n2cnc3c(N)ncnc32)C(O)C1O (stereo not given) [METHYLTHIOADENOSINE]	2.27 min	3.51 min	4.07 min	2.98 min	2.58 min	4.08 min	2.3 min
O=C(O)CCCCCCCC(=O)O [AZELATE]	5.49 min	6.39 min	6.98 min	6.09 min	5.73 min	6.89 min	5.57 min
O=C(O)Cc1ccc(O)c(O)c1 [3,4-DIHYDROXYPHENYLACETATE]	2.02 min	3.22 min	3.97 min	2.67 min	2.32 min	3.92 min	1.95 min
CC(C)(CO)C(O)C(=O)NCCC(=O)O (stereo not given) [PANTOTHENATE]	1.36 min	2.15 min	2.7 min	1.79 min	1.56 min	2.71 min	1.38 min
O=C(O)C(O)Cc1ccc(O)cc1 (stereo not given) [HYDROXYPHENYLLACTATE]	3.93 min	4.9 min	5.43 min	4.5 min	4.18 min	5.42 min	3.96 min
CCCCCCCCCCCCCC(=O)OCC(O)CO (stereo not given) [GLYCEROL-MYRISTATE]	13.2 min	14.6 min	15.4 min	14 min	13.6 min	15.3 min	13.3 min
O=C(O)CCCCCCCCCCCO [OMEGA-HYDROXYDODECANOATE]	8.13 min	9.11 min	9.68 min	8.71 min	8.4 min	9.68 min	8.17 min
CCC(C)C(N)C(=O)O (stereo not given) [ISOLEUCINE]	0.717 min	1.14 min	1.43 min	0.93 min	0.793 min	1.45 min	0.697 min
NC(Cc1c[nH]c2ccc(O)cc12)C(=O)O (stereo not given) [5-HYDROXYTRYPTOPHAN]	0.81 min	1.35 min	1.75 min	1.1 min	0.993 min	1.71 min	0.853 min
CC(CCC(=O)NCCS(=O)(=O)O)C1CCC2C3CCC4CC(O)CCC4(C)C3CCC12C (stereo not given) [LITHOCHOLYLTAURINE]	9.62 min	10.5 min	11.1 min	10.2 min	9.86 min	11 min	9.6 min
O=C(O)c1ccc(=O)[nH]c1 [6-HYDROXYNICOTINATE]	0.773 min	1.26 min	1.59 min	1.06 min	0.887 min	1.59 min	0.787 min
CC(CCC(=O)NCC(=O)O)C1CCC2C3C(O)CC4CC(O)CCC4(C)C3CCC12C (stereo not given) [GLYCOCHENODEOXYCHOLATE]	9.05 min	9.94 min	10.5 min	9.57 min	9.28 min	10.4 min	9.09 min
O=C(O)CCc1ccccc1O [3-(2-HYDROXYPHENYL)PROPANOATE]	5.08 min	6.14 min	6.72 min	5.72 min	5.36 min	12.1 min	5.13 min
O=C(O)c1ccc(O)cc1 [4-HYDROXYBENZOATE]	2.54 min	3.91 min	4.53 min	3.42 min	2.94 min	4.53 min	2.59 min
Nc1nc2nc[nH]c2c(=O)[nH]1 [GUANINE]	0.693 min	1.09 min	1.37 min	0.883 min	0.757 min	1.36 min	0.663 min
NC(Cc1cc(I)c(Oc2cc(I)c(O)c(I)c2)c(I)c1)C(=O)O (stereo not given) [THYROXINE]	7.65 min	8.44 min	8.88 min	8.11 min	7.87 min	8.87 min	7.69 min
Cc1cn(C2CC(O)C(CO)O2)c(=O)[nH]c1=O (stereo not given) [THYMIDINE]	1.04 min	1.64 min	2.06 min	1.36 min	1.19 min	2.09 min	1.05 min
O=C(O)c1cccc(O)c1O [2,3-DIHYDROXYBENZOATE]	1.52 min	2.44 min	5.33 min	2.06 min	3.88 min	5.32 min	1.53 min
